Data from ChEMBL document CHEMBL3734723, “Synthesis and anticancer activity of 6-heteroarylcoumarins” (2015).

Experiments:
Type in all cases: functional
CCRF-CEM = experiment: Growth inhibition of human CCRF-CEM cells incubated for 48 hrs by sulforhodamine B assay; conditions: for CC50: read-out: LC50 (the source's name)
A549 = experiment: Growth inhibition of human A549 cells incubated for 48 hrs by sulforhodamine B assay; conditions: A549, 48 h; for CC50: read-out: LC50 (the source's name)
[1] = Growth inhibition of human HOP62 cells incubated for 48 hrs by sulforhodamine B assay; conditions: HOP-62, 48 h; for CC50: read-out: LC50 (the source's name)
[2] = Growth inhibition of human HOP92 cells incubated for 48 hrs by sulforhodamine B assay; conditions: HOP-92, 48 h; for CC50: read-out: LC50 (the source's name)
NCI-H226 = experiment: Growth inhibition of human NCI-H226 cells incubated for 48 hrs by sulforhodamine B assay; conditions: NCI-H226, 48 h; for CC50: read-out: LC50 (the source's name)
NCI-H23 = experiment: Growth inhibition of human NCI-H23 cells incubated for 48 hrs by sulforhodamine B assay; conditions: NCI-H23, 48 h; for CC50: read-out: LC50 (the source's name)
[3] = Growth inhibition of human HCT116 cells incubated for 48 hrs by sulforhodamine B assay; conditions: HCT-116, 48 h; for CC50: read-out: LC50 (the source's name)
KM12 = experiment: Growth inhibition of human KM12 cells incubated for 48 hrs by sulforhodamine B assay; conditions: KM12, 48 h; for CC50: read-out: LC50 (the source's name)
U-251 = experiment: Growth inhibition of human U251 cells incubated for 48 hrs by sulforhodamine B assay; conditions: U-251, 48 h; for CC50: read-out: LC50 (the source's name)
SK-MEL-2 = experiment: Growth inhibition of human SK-MEL-2 cells incubated for 48 hrs by sulforhodamine B assay; conditions: SK-MEL-2, 48 h; for CC50: read-out: LC50 (the source's name)
SK-MEL-5 = experiment: Growth inhibition of human SK-MEL-5 cells incubated for 48 hrs by sulforhodamine B assay; conditions: SK-MEL-5, 48 h; for CC50: read-out: LC50 (the source's name)
[4] = Growth inhibition of human IGROV1 cells incubated for 48 hrs by sulforhodamine B assay; conditions: IGROV-1, 48 h; for CC50: read-out: LC50 (the source's name)
[5] = Growth inhibition of human NCI-ADR-RES cells incubated for 48 hrs by sulforhodamine B assay; conditions: for CC50: read-out: LC50 (the source's name)
MCF7 [6] = experiment: Growth inhibition of human MCF7 cells incubated for 48 hrs by sulforhodamine B assay; conditions: MCF7, 48 h; for CC50: read-out: LC50 (the source's name)
MDA-MB-468 = experiment: Growth inhibition of human MDA-MB-468 cells incubated for 48 hrs by sulforhodamine B assay; conditions: MDA-MB-468, 48 h; for CC50: read-out: LC50 (the source's name)
[7] = Growth inhibition of human melanoma cells after 48 hrs by sulforhodamine B assay; conditions: Melanoma cell; for CC50: read-out: LC50 (the source's name)
[8] = Growth inhibition of human ovarian cancer cells after 48 hrs by sulforhodamine B assay; conditions: Cancer cell lines; for CC50: read-out: LC50 (the source's name)
[9] = Growth inhibition of human prostate cancer cells after 48 hrs by sulforhodamine B assay; conditions: Cancer cell lines; for CC50: read-out: LC50 (the source's name)
[10] = Growth inhibition of human breast cancer cells after 48 hrs by sulforhodamine B assay; conditions: Cancer cell lines; for CC50: read-out: LC50 (the source's name)
SR = experiment: Cytotoxicity against human SR cells assessed as cell growth at 10 uM incubated for 48 hrs by sulforhodamine B assay; conditions: read-out: Activity
[11] = Cytotoxicity against human UO31 cells assessed as cell growth at 10 uM incubated for 48 hrs by sulforhodamine B assay; conditions: UO-31, 48 h, read-out: Activity
[12] = Cytotoxicity against human MOLT4 cells assessed as cell growth at 10 uM incubated for 48 hrs by sulforhodamine B assay; conditions: MOLT-4, 48 h, read-out: Activity
EKVX = experiment: Cytotoxicity against human EKVX cells assessed as cell growth at 10 uM incubated for 48 hrs by sulforhodamine B assay; conditions: read-out: Activity
[13] = Cytotoxicity against human HCT116 cells assessed as cell growth at 10 uM incubated for 48 hrs by sulforhodamine B assay; conditions: HCT-116, 48 h, read-out: Activity
[14] = Cytotoxicity against human HCT15 cells assessed as cell growth at 10 uM incubated for 48 hrs by sulforhodamine B assay; conditions: HCT-15, 48 h, read-out: Activity
[15] = Cytotoxicity against human SF539 cells assessed as cell growth at 10 uM incubated for 48 hrs by sulforhodamine B assay; conditions: SF-539, 48 h, read-out: Activity
[16] = Cytotoxicity against human SF268 cells assessed as cell growth at 10 uM incubated for 48 hrs by sulforhodamine B assay; conditions: SF-268, 48 h, read-out: Activity
Malme-3M = experiment: Cytotoxicity against human MALME-3M cells assessed as cell growth at 10 uM incubated for 48 hrs by sulforhodamine B assay; conditions: read-out: Activity
[17] = Cytotoxicity against human IGROV1 cells assessed as cell growth at 10 uM incubated for 48 hrs by sulforhodamine B assay; conditions: IGROV-1, 48 h, read-out: Activity
[18] = Cytotoxicity against human OVCAR4 cells assessed as cell growth at 10 uM incubated for 48 hrs by sulforhodamine B assay; conditions: OVCAR-4, 48 h, read-out: Activity
ACHN = experiment: Cytotoxicity against human ACHN cells assessed as cell growth at 10 uM incubated for 48 hrs by sulforhodamine B assay; conditions: read-out: Activity
[19] = Cytotoxicity against human RXF393 cells assessed as cell growth at 10 uM incubated for 48 hrs by sulforhodamine B assay; conditions: RXF 393, 48 h, read-out: Activity
MCF7 [20] = experiment: Cytotoxicity against human MCF7 cells assessed as cell growth at 10 uM incubated for 48 hrs by sulforhodamine B assay; conditions: MCF7, 48 h, read-out: Activity
T47D = experiment: Cytotoxicity against human T47D cells assessed as cell growth at 10 uM incubated for 48 hrs by sulforhodamine B assay; conditions: read-out: Activity
MDA-MB-231 = experiment: Cytotoxicity against human MDA-MB-231 cells assessed as cell growth at 10 uM incubated for 48 hrs by sulforhodamine B assay; conditions: MDA-MB-231, 48 h, read-out: Activity
[21] = Cytotoxicity against human Hs578T cells assessed as cell growth at 10 uM incubated for 48 hrs by sulforhodamine B assay; conditions: Hs-578T, read-out: Activity
[22] = Cytotoxicity against human […] cells assessed as cell growth at 10 uM incubated for 48 hrs by sulforhodamine B assay; conditions: read-out: Activity

Cc1cc(=O)oc2c(C)c(O)c(-c3ccnc(N)n3)cc12
GI50 (CCRF-CEM): 8.7 µM
TGI (CCRF-CEM): > 100 µM
CC50 (CCRF-CEM): > 100 µM
GI50 (A549): 3.03 µM
TGI (A549): > 100 µM
CC50 (A549): > 100 µM
GI50 [1]: 10.9 µM
TGI [1]: > 100 µM
CC50 [1]: > 100 µM
GI50 [2]: 19.4 µM
TGI [2]: 93.9 µM
CC50 [2]: > 100 µM
GI50 (NCI-H226): 9.84 µM
TGI (NCI-H226): > 100 µM
CC50 (NCI-H226): > 100 µM
GI50 (NCI-H23): 46 µM
TGI (NCI-H23): > 100 µM
CC50 (NCI-H23): > 100 µM
GI50 [3]: 3.05 µM
TGI [3]: > 100 µM
CC50 [3]: > 100 µM
GI50 (KM12): > 100 µM
TGI (KM12): > 100 µM
CC50 (KM12): > 100 µM
GI50 (U-251): 8.59 µM
TGI (U-251): > 100 µM
CC50 (U-251): > 100 µM
GI50 (SK-MEL-2): 88.1 µM
TGI (SK-MEL-2): > 100 µM
CC50 (SK-MEL-2): > 100 µM
GI50 (SK-MEL-5): 3.56 µM
TGI (SK-MEL-5): > 100 µM
CC50 (SK-MEL-5): > 100 µM
GI50 [4]: 15.8 µM
TGI [4]: > 100 µM
CC50 [4]: > 100 µM
GI50 [5]: 66.1 µM
TGI [5]: > 100 µM
CC50 [5]: > 100 µM
GI50 (MCF7 [6]): 2.61 µM
TGI (MCF7 [6]): > 100 µM
CC50 (MCF7 [6]): > 100 µM
GI50 (MDA-MB-468): 4.53 µM
TGI (MDA-MB-468): > 100 µM
CC50 (MDA-MB-468): > 100 µM
GI50 [7]: 68.1 µM
TGI [7]: > 100 µM
CC50 [7]: > 100 µM
GI50 [8]: 42.5 µM
TGI [8]: > 100 µM
CC50 [8]: > 100 µM
GI50 [9]: > 100 µM
TGI [9]: > 100 µM
CC50 [9]: > 100 µM
GI50 [10]: 32 µM
TGI [10]: > 100 µM
CC50 [10]: > 100 µM
growth at 10 µM (SR): 9.17%
growth at 10 µM [11]: 23%
growth at 10 µM [12]: -44.7%
growth at 10 µM (EKVX): 46.7%
growth at 10 µM [13]: 15.8%
growth at 10 µM [14]: 50.4%
growth at 10 µM [15]: 60.7%
growth at 10 µM [16]: 62.6%
growth at 10 µM (Malme-3M): 66.9%
growth at 10 µM [17]: 60.9%
growth at 10 µM [18]: 68.6%
growth at 10 µM (ACHN): 26.9%
growth at 10 µM [19]: 55.7%
growth at 10 µM (MCF7 [20]): 22.1%
growth at 10 µM (T47D): 53.7%
growth at 10 µM (MDA-MB-231): 69%
growth at 10 µM [21]: 51%
growth at 10 µM [22]: 40.4%

Cc1cc(=O)oc2c(C)c(O)c(-c3cc4ccc(F)cc4[nH]3)cc12
GI50 (CCRF-CEM): 4.42 µM
TGI (CCRF-CEM): 47.7 µM
CC50 (CCRF-CEM): > 100 µM
GI50 (A549): 3.82 µM
TGI (A549): 15 µM
CC50 (A549): 58.4 µM
GI50 [1]: 2.98 µM
TGI [1]: 15.9 µM
CC50 [1]: 45.4 µM
GI50 [2]: 0.95 µM
TGI [2]: 4.17 µM
CC50 [2]: 29.9 µM
GI50 (NCI-H226): 3.34 µM
TGI (NCI-H226): 22.1 µM
CC50 (NCI-H226): > 100 µM
GI50 (NCI-H23): 2.07 µM
TGI (NCI-H23): 8.99 µM
CC50 (NCI-H23): 75.3 µM
GI50 [3]: 2.62 µM
TGI [3]: 9.87 µM
CC50 [3]: 31.5 µM
GI50 (KM12): 3.03 µM
TGI (KM12): 12.4 µM
CC50 (KM12): 42 µM
GI50 (U-251): 3.05 µM
TGI (U-251): 13.2 µM
CC50 (U-251): 43.4 µM
GI50 (SK-MEL-2): 3.12 µM
TGI (SK-MEL-2): 7.34 µM
CC50 (SK-MEL-2): 41.5 µM
GI50 (SK-MEL-5): 1.65 µM
TGI (SK-MEL-5): 4.46 µM
CC50 (SK-MEL-5): 14.5 µM
GI50 [4]: 2.3 µM
TGI [4]: 13.7 µM
CC50 [4]: 62.8 µM
GI50 [5]: 2.82 µM
TGI [5]: 12.7 µM
CC50 [5]: > 100 µM
GI50 (MCF7 [6]): 2.57 µM
TGI (MCF7 [6]): 16.2 µM
CC50 (MCF7 [6]): > 100 µM
GI50 (MDA-MB-468): 2.31 µM
TGI (MDA-MB-468): 8.66 µM
CC50 (MDA-MB-468): 80.4 µM
GI50 [7]: 2.64 µM
TGI [7]: 9.71 µM
CC50 [7]: 30.8 µM
GI50 [8]: 3.08 µM
TGI [8]: 17.2 µM
CC50 [8]: 73.6 µM
GI50 [9]: 3.09 µM
TGI [9]: 14.2 µM
CC50 [9]: > 100 µM
GI50 [10]: 2.67 µM
TGI [10]: 14.2 µM
CC50 [10]: 89.3 µM
growth at 10 µM (SR): 28.4%
growth at 10 µM [11]: 21.6%
growth at 10 µM [12]: 36.5%
growth at 10 µM (EKVX): 53.3%
growth at 10 µM [13]: 22.9%
growth at 10 µM [14]: 31.9%
growth at 10 µM [15]: 47.3%
growth at 10 µM [16]: 48.7%
growth at 10 µM (Malme-3M): 31.9%
growth at 10 µM [17]: 33.2%
growth at 10 µM [18]: 33.7%
growth at 10 µM (ACHN): 27.6%
growth at 10 µM [19]: 64.4%
growth at 10 µM (MCF7 [20]): 28.3%
growth at 10 µM (T47D): 27.2%
growth at 10 µM (MDA-MB-231): 59.3%
growth at 10 µM [21]: 42.1%
growth at 10 µM [22]: 41.2%
